Measurements reported in PMC11754443, “Synthesis, H2S releasing properties, antiviral and antioxidant activities and acute cardiac effects of nucleoside 5′-dithioacetates” (Scientific Reports, 2025).
Read-outs that look alike come from different tables or passages of the source.

What was measured:
[1] = ABTS radical cation decolorization assay; conditions: 0.1 mM, compared with parent dithioacetates 22 and 24
Method: The ABTS decolorization assay was carried out as described by Szoke et al.[54] Briefly, the method is based on the scavenging of (2,2′-azinobis-(3-ethylbenzothiazoline-6-sulfonic acid) ABTS^•+ radical cation. The decolorization caused by the compound is compared to the decolorization induced by Trolox (6-hydroxy-2,5,7,8-tetramethylchroman-2-carboxylic acid), and expressed as Trolox equivalent antioxidant capacity (TEAC) value. TEAC values were expressed as Trolox equivalents calculated from (Ai − Af)antioxidant/(Ai − Af) Trolox at 0.1 mM concentrations. Briefly, a total of 10 µL sample, 20 µL of Myoglobin Working Solution, and 150 µL of ABTS Substrate Working Solution were mixed and incubated for 5 min at room temperature. At the end of incubation […] of Stop Solution was added and endpoint absorbance at 405 nm was read. All experiments were performed in triplicates and repeated three times.

[2] = system: anaesthetized Sprague-Dawley rats; test: Cardiac effects by ECG and echocardiography in anaesthetized rats; type: in vivo, rat; conditions: 2 mg/kg i.v.
Method: The animals received humane care, and all experimental procedures were carried out in accordance with the “Principles of Laboratory Animal Care” by EU Directive 2010/63/EU. All experimental protocols were approved by the local Ethics Committee of University of Debrecen (25/2023/DEMÁB). Animal experiments are reported in compliance with the ARRIVE guidelines. Anesthesia was carried out using ketamine/xylazine mixture (100/10 mg/kg, i.m.). The chest was shaved and the animal was placed onto a heated pad (VisualSonics SR200, VisualSonics, Amsterdam, The Netherlands). The lateral tail vein was cannulated using a heparinized 26G i.v. cannula (BD Neoflon, BD Medical, NJ, USA). B-mode and M-mode echocardiography was carried out before and 30 s after the intravenous administration of the compounds. A high-resolution ultrasound machine (Vevo 3100 Imaging Station, VisualSonics, Amsterdam, The Netherlands) equipped with a […] transducer (MX201) was used for assessing cardiac parameters. Traces were obtained from the parasternal long axis view (PLAX). A B-mode video and an M-mode trace was recorded, and the following parameters were then offline analysed: left ventricle (LV) end-systolic and end-diastolic volume (LVESV, LVEDV, respectively) fractional shortening (FS) and ejection fraction (EF) and stroke volume (SV).
A 3-channel ECG was continuously recorded during the experiments (Vevo monitor ECG, VisualSonics, Amsterdam, The Netherlands). On the recorded ECG data, RR, PR and QT intervals, and heart rate (HR) were determined before and 30 s after the administration of the drugs, and 6 consecutive cardiac cycles were averaged for each parameter.
Statistical analyses for the in vivo studies were carried out using the GraphPad Prism 9.0 software (GraphPad Software, San Diego, CA, USA). Data distribution was assessed by the Shapiro-Wilk normality test, and paired t-test were used to determine the differences between the baseline (drug free) and endpoint (treated) parameters in each group. A multiple comparison was also carried out between the treatment groups by using one-way ANOVA with Tukey multiple comparison test. Data was shown as mean ± SD, and differences with p < 0.05 were considered significant.

[3] = DPPH radical scavenging assay; conditions: for IC50: without extract
Method: DPPH is a stable free radical with a deep violet color that changes to yellow when neutralized by an electron or hydrogen radical, indicating the antioxidant activity of the sample being tested. The DPPH radical scavenging abilities were investigated following the method outlined by Shimamura et al., with minor adjustments. In this study, a cardiovascular tissue homogenate was used to induce H2S release from the dithioacetate derivatives 22 and 24, as well as GYY4137. A mixed solution of 1.2 mL of methanol and 800 µL of 0.1 M Tris-HCl buffer (pH 7.4) served as the blank. 1 mL DPPH solution was added to a mixture of methanol and 0.1 M Tris-HCl buffer (200:800 µL). After mixing, the absorbance was recorded at 517 nm on a UV-1600 PC VWR spectrophotometer (VWR, China). To avoid any potential interference from the heart extract in the assay, we measured the absorbance after adding different volumes of the extract into the mixture. These measurements were taken both immediately and after 30 min of incubation.
The DPPH antioxidant assay was performed according to the following procedures. 1 mL of DPPH solution was added to a mixture of 200 µL of the methanolic sample solution and 800 µL of 0.1 M Tris-HCl buffer (pH = 7.4). For the groups containing the extract, the extract was introduced into a mixture of the sample solution in PBS buffer, 0.1 M Tris-HCl buffer, and DPPH (200:800:1000 µL). Considering that GYY4137 produces H2S upon hydrolysis, it was introduced last following the addition of the extract into a solution of PBS buffer, 0.1 M Tris-HCl buffer, and DPPH maintained at the same ratio. The same protocol was employed for NaHS without the addition of the extract. After mixing, the absorbance was promptly recorded, after which the solutions were incubated in the dark at room temperature for 30 min before the absorbance was measured again. The test samples were prepared and assayed at varying concentrations using a 2-fold serial dilution method, starting from a concentration of 2 mM. Each investigation was performed in triplicate, and the antioxidant activity was based on the absorbance recorded at 517 nm. Ascorbic acid (AA), GYY4137, and NaHS served as positive controls, while the unmodified nucleosides were used as reference compounds.
The inhibition ratio (IR) was calculated as follows: [drawing 1] where Ac is the absorbance when methanol is added instead of the sample and As is the absorbance when the testing sample solution is added.
The antioxidant capacity was expressed as the concentration needed to achieve a 50% inhibition of the free radical (IC50). The IC50 values were calculated by plotting the percent of inhibition as a function of sample concentration.

[4] = set-up: method as in PMID 26809888; conditions: administered at the end of sustained ischemia; cited from earlier work
[5] = system: perivascular adipose tissue; set-up: method as in PMID 26120822; conditions: obese rats, through H2S release; cited from earlier work
[6] = system: SARS-CoV-2 (strain hCoV-19/Czech Republic/NRL_6632_2/2020); test: Anti-SARS-CoV-2 cytopathic-effect-based assay in Calu-3 cells (CellTiter-Glo); type: cell-based; conditions: Severe acute respiratory syndrome coronavirus 2, compound added 2 h after infection, MOI 0.3, read after two days, read-out: EC50 ± SE, anti-SARS-CoV-2 activity
SARS-CoV-2 = type: cell-based; conditions: medium of Calu-3 cells infected 2 days at the highest compound concentration, plaque assay in Vero E6 cells
[7] = Cytotoxicity in Calu-3 cells (CellTiter-Glo); type: cell-based, human; conditions: human
Method: Cytotoxicity was evaluated by incubating the same two-fold serial dilutions of each compound with Calu-3 cells as above in the absence of the virus. Following two days incubation at 37 °C in 5% CO2, the cell viability was determined as above. The compound concentrations resulting in 50% reduction of cell viability (CC50) were calculated from plots of percentage of luminescence versus log10 drug concentration as above. Remdesivir was used as control in both assays.

[8] = anaesthetized SD rats, 30 s after administration, mean ± SD

In the case of `Nc1ncnc2c1ncn2[C@@H]1O[C@H](CS)[C@@H](O)[C@H]1O` [Compound 34, 5′-Deoxy-5′-thioadenosine], the “ABTS antioxidant activity (Trolox equivalents), in words” value [1] is reported as “higher antioxidant activity than the parent dithioacetate derivatives”, the “Ejection Fraction” value [2, 8] is reported as 82.14±5.877% and the Heart rate [2, 8] is reported as 97.25±24.66 bpm. The PR interval [2, 8] was 49.43 ± 6.973 ms, the QT interval [2, 8] was 158.3 ± 35.8 ms and the “Stroke Volume” value [2, 8] was 335.6 ± 68.82 µL. The “duration of negative chronotropic action compared with adenosine” value ([2]; anaesthetized rats) was “their duration of action was longer”, the “heart block (in words)” value ([2]; anaesthetized rats) was “None of the new compounds (22, 24, and 34) induced complete heart block or pauses” and the “DPPH inhibition ratio after 30 min incubation” value ([3]; 2 mM, after 30 min incubation) was 90%. The “DPPH inhibition ratio immediately” value ([3]; 2 mM, immediately) was 70–80%, the IC50 ([3]; after 30 min incubation, read-out: DPPH IC50 30 min) was 580 µM and the “DPPH activity lower than that of ascorbic acid” value ([3]; from IC50 values, relative to ascorbic acid) was 10 times. For the same compound, the IC50 ([3]; measured immediately, read-out: DPPH IC50 immediately) was 720 µM.
For `NC(=S)c1ccc(OC[C@H]2O[C@@H](n3cnc4c(N)ncnc43)[C@H](O)[C@@H]2O)cc1` [Compound 1], the “effect on infarct size” value [4] is given as “significantly reduced infarct size”.
For `Nc1ncnc2c1ncn2[C@@H]1O[C@H](COP(O)(O)=S)[C@@H](O)[C@H]1O` [Compound 2], the “effect on anti-contractile effects of perivascular adipose tissue” value [5] is listed as “restore the anti-contractile effects of perivascular adipose tissue in obese rats”.
For `Nc1nc2c(ncn2[C@@H]2O[C@H](COP(O)(O)=S)[C@@H](O)[C@H]2O)c(=O)[nH]1` [Compound 3], the “effect on anti-contractile effects of perivascular adipose tissue” value [5] is given as “restore the anti-contractile effects of perivascular adipose tissue in obese rats”.
Work on `CCC(CC)COC(=O)[C@H](C)N[P@](=O)(OC[C@H]1O[C@@](C#N)(c2ccc3c(N)ncnn23)[C@H](O)[C@@H]1O)Oc1ccccc1` [Remdesivir, reference compound] yielded an EC50 [6] of 0.5 ± 0.26 µM, an SARS-CoV-2 titer reduction (SARS-CoV-2) of 7.1 log10 PFU/mL and a CC50 at 2 days [7] of over 10 µM.
